Results from US20080207614A1, “QUINAZOLINE DERIVATIVES FOR THE TREATMENT AND PREVENTION OF DIABETES AND OBESITY” (SK CHEMICALS CO., LTD., priority 2004, published 2008).

What was measured:
AMPK = assay: Measurement of AMPK activity by Western blot in C2C12 cells; type: cell-based; set-up: key to AMPK activity (degree of phosphorylation of serine-79 and threonine-172): fold increase in threonine-172 phosphorylation; AMPK activity (degree of phosphorylation of serine-79): unit not given here; details: 10 μM for 50 minutes; for AMPK activity (degree of phosphorylation of serine-79 and threonine-172): no superscript: Western blot of serine-79 and threonine-172 phosphorylation; for AMPK activity (class: degree of phosphorylation of threonine-172): strong/mild/weak
Method in brief: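 Western blot readout of AMPK Thr-172 and ACC Ser-79 phosphorylation, normalised against ERK, served as the activity measure. Cells were C2C12 after differentiation, treated 50 minutes with 10 μM test material. Grading by Thr-172 increase: ≥3-fold strong, 1-3-fold mild, <1-fold weak.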

C2C12 muscle cells = assay: Analysis of glucose absorption (2-deoxyglucose) in differentiated C2C12 muscle cells; type: cell-based; details: test materials 10 μM, times relative to control group
Method in brief: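 Uptake of 0.2 μCi 2-deoxyglucose over 20 min, counted radiometrically in lysed cells. Before tracer, compounds (10 μM) were applied for 30 min to C2C12 cells differentiated 6 days in 1% serum and equilibrated 3 h in 5 mM glucose KRB.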

Structure (SMILES)	AMPK activity (degree of phosphorylation of serine-79 and threonine-172) (AMPK)	AMPK activity (class: degree of phosphorylation of threonine-172) (AMPK)	Glucose absorption (C2C12 muscle cells)	AMPK activity (degree of phosphorylation of serine-79) (AMPK; footnote a: Western blot of serine-79 phosphorylation)
FCCNc1nc(-c2ccccc2)nc2ccccc12 [Compound 114, (2-Fluoro-ethyl)-(2-phenylquinazolino-4-yl)-amine]	2.0	strong (“strong” means that the degree of phosphorylation of threonine-172 increased by 3 times or more)	2.2	
Clc1cccc(CCNc2nc(-c3ccccc3)nc3ccccc23)c1 [Compound 126, [2-(3-Chlorophenyl)-ethyl]-(2-phenylquinazolino-4-yl)-amine]	2.0	strong (“strong” means that the degree of phosphorylation of threonine-172 increased by 3 times or more)	2.1	
COc1ccc(CNc2ncnc3ccccc23)cc1 [Compound 406, (4-Methoxybenzyl)-quinazolino-4-ylamine]	1.5		2.1	
CCSc1nc(NCc2c(F)cccc2Cl)c2ccccc2n1 [Compound 49, (2-Chloro-6-fluorobenzyl)-(2-ethylsulfanylquinazolino-4-yl)-amine]		mild (“mild” means that the degree of phosphorylation of threonine-172 increased by 1 to 3 times)	1.8	
COc1cc(CNc2nc(N3CCCCC3)nc3ccccc23)cc(OC)c1 [Compound 304, (3,5-Dimethoxybenzyl)-(2-piperidino-1-ylquinazolino-4-yl)-amine]	1.4		0.8	
c1ccc(CCNc2nc(-c3ccccn3)nc3ccccc23)cc1 [Compound 227, Phenethyl-(2-pyridino-2-ylquinazolino-4-yl)-amine]	4.9	strong (“strong” means that the degree of phosphorylation of threonine-172 increased by 3 times or more)	1.6	
Brc1cccc(CNc2nc(-c3ccccc3)nc3ccccc23)c1 [Compound 153, (3-Bromobenzyl)-(2-phenylquinazolino-4-yl)-amine]	1.3	mild (“mild” means that the degree of phosphorylation of threonine-172 increased by 1 to 3 times)	2.4	
CC(C)(C)c1nc(NCCc2cccc(F)c2)c2ccccc2n1 [Compound 196, (2-tert-Butylquinazolino-4-yl)-[2-(3-fluorophenyl)-ethyl]-amine]	4.8	strong (“strong” means that the degree of phosphorylation of threonine-172 increased by 3 times or more)	2.1	
COc1cc(OC)c(CNc2nc(C(OC)c3ccccc3)nc3ccccc23)c(OC)c1 (stereo not shown) [Compound 370, [2-(Methoxyphenylmethyl)-quinazolino-4-yl]-(2,4,6-trimethoxybenzyl)-amine]	7.7		1.3	
COc1ccc(CNc2nc(N3CCOCC3)nc3ccccc23)cc1OC [Compound 301, (3,4-Dimethoxybenzyl)-(2-morpholino-4-ylquinazolino-4-yl)-amine]	0.9		0.8	
CCSc1nc(NCc2cccc3ccccc23)c2ccccc2n1 [Compound 35, (2-Ethylsulfanylquinazolino-4-yl)-naphthaleno-1-ylmethyl amine]		strong (“strong” means that the degree of phosphorylation of threonine-172 increased by 3 times or more)	1.9	
COc1ccc(CNc2nc(N3CCOCC3)nc3ccccc23)cc1 [Compound 285, (4-Methoxybenzyl)-(2-morpholino-4-ylquinazolino-4-yl)-amine]	1.6		0.8	
O=[N+]([O-])c1ccc2ncnc(Nc3ccccc3)c2c1 [Compound 13, (6-Nitro-quinazolino-4-yl)-phenylamine]			0.7	4.2^a
COc1ccc(CNc2nc(-c3ccccc3)nc3ccccc23)c(OC)c1 [Compound 144, (2,4-Dimethoxybenzyl)-(2-phenylquinazolino-4-yl)-amine]	2.1	strong (“strong” means that the degree of phosphorylation of threonine-172 increased by 3 times or more)	1.3	
COc1ccc(CNc2ncnc3ccccc23)c(OC)c1 [Compound 412, (2,4-Dimethoxybenzyl)-quinazolino-4-ylamine]	8.4		1.7	
COc1ccc(COc2nc(-c3ccccc3)nc3ccccc23)c(OC)c1 [Compound 273, 4-(2,4-Dimethoxybenzyloxy)-2-phenylquinazoline]	1.5		0.7	
COc1ccc(CNc2nc(C3CC3)nc3ccccc23)cc1OC [Compound 388, (2-Cyclopropylquinazolino-4-yl)-(3,4-dimethoxybenzyl)-amine]	2.8		1.2	
COc1cc(CNc2nc(C3CC3)nc3ccccc23)cc(OC)c1OC [Compound 389, (2-Cyclopropylquinazolino-4-yl)-(3,4,5-trimethoxybenzyl)-amine]	2.2		1.3	
c1ccc(-c2nc(NC3CC3)c3ccccc3n2)cc1 [Compound 110, Cyclopropyl-(2-phenylquinazolino-4-yl)-amine]	1.6	strong (“strong” means that the degree of phosphorylation of threonine-172 increased by 3 times or more)	2.0	
CCCc1nc(NCc2cccc(OC)c2)c2ccccc2n1 [Compound 394, (3-Methoxybenzyl)-(2-propylquinazolino-4-yl)-amine]	4.5		1.3	
CC(C)(C)c1nc(NCCCCc2ccccc2)c2ccccc2n1 [Compound 192, (2-tert-Butylquinazolino-4-yl)-(4-phenylbutyl)-amine]	6.5	strong (“strong” means that the degree of phosphorylation of threonine-172 increased by 3 times or more)	2.1	
COc1cccc(CNc2nc(N3CCCCC3)nc3ccccc23)c1OC [Compound 288, (2,3-Dimethoxybenzyl)-(2-piperidino-1-ylquinazolino-4-yl)-amine]	1.7		0.8	
c1ccc(-c2nc(NCc3ccc4c(c3)OCO4)c3ccccc3n2)nc1 [Compound 230, Benzo[1,3]dioxol-5-ylmethyl-(2-pyridino-2-ylquinazolino-4-yl)-amine]	4.9	strong (“strong” means that the degree of phosphorylation of threonine-172 increased by 3 times or more)	1.7	
Cc1nc(NCCc2ccccc2)c2ccccc2n1 [Compound 167, (2-Methylquinazolino-4-yl)-phenethylamine]	6.7	strong (“strong” means that the degree of phosphorylation of threonine-172 increased by 3 times or more)	3.2	
COc1ccc(CNc2nc(C3CC3)nc3ccccc23)c(OC)c1 [Compound 390, (2-Cyclopropylquinazolino-4-yl)-(2,4-dimethoxybenzyl)-amine]	3.8		1.1	
c1ccc(CCNc2nc(C3CCCCC3)nc3ccccc23)cc1 [Compound 203, (2-Cyclohexylquinazolino-4-yl)-phenethylamine]	3.9	strong (“strong” means that the degree of phosphorylation of threonine-172 increased by 3 times or more)	2.0	
Cc1nc(NCc2cccc3ccccc23)c2ccccc2n1 [Compound 169, (2-Methylquinazolino-4-yl)-naphthaleno-1-ylmethylamine]	6.6	strong (“strong” means that the degree of phosphorylation of threonine-172 increased by 3 times or more)	2.5	
COc1ccc(OC)c(CNc2nc(C(C)C)nc3ccccc23)c1 [Compound 326, (2,5-Dimethoxybenzyl)-(2-isopropylquinazolino-4-yl)-amine]	2.9		1.2	
Cc1nc(NCc2cccc(F)c2)c2ccccc2n1 [Compound 171, (3-Fluorobenzyl)-(2-methylquinazolino-4-yl)-amine]	6.6	strong (“strong” means that the degree of phosphorylation of threonine-172 increased by 3 times or more)	2.2	
COc1cc(CNc2nc(-c3ccco3)nc3ccccc23)cc(OC)c1 [Compound 343, (3,5-Dimethoxybenzyl)-(2-furano-2-ylquinazolino-4-yl)-amine]	0.8		1.3	
